{"source": "patent US20220265713A1", "about": "“SPHINGOLIPIDS FOR GENERATING REGULATORY CD4+ T CELLS” (Deutsches Krebsforschungszentrum, priority 2019, published 2022)", "key": {"EAE mice": {"system": "EAE mice", "experiment": "EAE mouse model for multiple sclerosis (MOG35-55 immunization), clinical scoring", "type": "in vivo", "conditions": "C57BL/6 mice, sphinganine 1000 μg/kg body weight intraperitoneally, one injection every two days, day 1 to day 15, FIG. 5", "procedure": "EAE induction and monitoring. Each mouse was subcutaneously immunized with 200 μg MOG35-55 peptide emulsified in Freund's Complete Adjuvant. Pertussis toxin (400 ng per mouse) was injected intraperitoneally. Where indicated, mice were intraperitoneally injected with sphinganine (every other day from the day of immunization to the end of the experiments). EAE symptoms were scored every day using the following scoring standard: 0, no sign; 1, limp tail; 2, paraparesis (incomplete paralysis of 1 or 2 hind limbs); 3, paraplegia (complete paralysis of 2 hind limbs); 4, paraplegia with forelimb weakness or paralysis; 5, moribund state or death. For the mouse welfare reason, we sacrificed the mice if the score reached 3. […] C57BL/6 mice were subcutaneously immunized with 200 μg MOG35-55 peptide emulsified in Freund's Complete Adjuvant to induce EAE development. Pertussis toxin (400 ng per mouse) was injected intraperitoneally. Mice were intraperitoneally injected with sphinganine (1000 μg/kg body weight, one injection every two days, from day 1 to day 15). EAE symptoms were scored every day."}, "naïve CD4+ T cells [1]": {"system": "naïve CD4+ T cells", "experiment": "Treg cell in vitro differentiation of naïve CD4+ T cells (flow cytometry of Foxp3)", "type": "cell-based, mouse", "conditions": "sphinganine 5 μM, three days; for Foxp3 protein expression: anti-CD3, anti-CD28, TGFβ 5 ng/ml, IL-2 10 ng/ml, vs vehicle DMSO, FIG. 4A/4C", "procedure": "(§1) FIG. 4. Sphinganine promoted the Treg cell in vitro generation and suppressed the inflammatory Th17 cell formation. The YFP-negative CD4^+non-Treg naïve T cells were FACS-sorted (1 ×10^5 cells in 250 μl complete medium) from the Foxp3Cre-YFP mice. The naive T cells were activated with the anti-CD3 and anti-CD28 for three days, in the presence or absence of cytokine TGFβ (5 ng/ml) and IL-2 (10 ng/ml) for Treg cells and TGFβ (5 ng/ml), IL-6 (20 ng/ml) and anti-IFNy (10 μg/ml) for Th17 cells. A: flow cytometry analysis of Foxp3 protein expression after induction of Treg cell formation with sphinganine (5 μM) in the presence of cytokine TGFβ (5 ng/ml) or vehicle control DMSO (no TGFβ). B: Flow cytometry analysis of IL-17 protein expression after induction of Th17 cell formation with TGFβ (5 ng/ml), IL-6 (20 ng/ml) and anti-IFNy (10 μg/ml) in the presence or absence of sphinganine (5 μM). C: Flow cytometry analysis of Foxp3 protein expression after induction of Treg cell formation in the presence of TGFβ (5 ng/ml) and L- serine (5 μM), 3-KDS (5 μM), shinganine (5 μM), dihydroceramide (50 nM), ceramide (50 nM), sphingosine (1 μM), sphingosine-1-phosphate (1 μM), shinganine-1-phosphate (1 μM), or vehicle control DMSO (TGFβ only). D: Structures of sphingolipids, as indicated, and sphingolipid biosynthetic pathway are depicted. The numbers in each FACS plot show the percentages of the indicated cell population within the total population of cells shown in the FACS plot.\nMouse primary T cell culture. Complete medium was used for cell culture and was prepared by supplementing RPMI 1640 plain medium with 10% fetal calf serum, penicillin/streptomycin antibiotics and non-essential amino acids. For Treg and Th17 cell in vitro differentiation, naïve splenic T cells were purified from the Sptic2^+/+Foxp3Cre-YFP wild type mice using the flow cytometry sorter. […]\n(§2) Flow Cytometry. […] Samples were run on the LSR II and analyzed using the Flowjo software (FlowJo, LLC, BD). […]"}, "naïve CD4+ T cells [2]": {"system": "naïve CD4+ T cells", "experiment": "Th17 cell in vitro differentiation of naïve CD4+ T cells (flow cytometry of IL-17)", "type": "cell-based, mouse", "conditions": "sphinganine 5 μM, three days", "procedure": "as §1, with “D: Structures of sphingolipids, as indicated, and sphingolipid biosynthetic pathway are depicted. The numbers in each FACS plot show the percentages of the indicated cell population within the total population of cells shown in the FACS plot.” left out\nas §2"}}}
{"molecule": "CCCCCCCCCCCCCCC[C@@H](O)[C@@H](N)CO", "note": "[sphinganine]", "values": [{"measurement": "EAE clinical scores / EAE development", "setting": "EAE mice", "value": "reduced"}, {"measurement": "EAE clinical scores / EAE development", "setting": "EAE mice; listed as Sphinganine", "value": "ameliorated EAE development"}, {"measurement": "Treg cell in vitro generation / Treg cell formation", "setting": "naïve CD4+ T cells [1]; Treg cell-inducing condition (anti-CD3, anti-CD28, TGFβ, IL-2)", "value": "promoted"}, {"measurement": "Foxp3 protein expression", "setting": "naïve CD4+ T cells [1]", "value": "increase"}, {"measurement": "Foxp3 protein expression", "setting": "naïve CD4+ T cells [1]; listed as Sphinganine", "value": "further increased"}, {"measurement": "IL-17 production / IL-17 protein expression", "setting": "naïve CD4+ T cells [2]; Th17 cell-differentiation condition: TGFβ 5 ng/ml, IL-6 20 ng/ml, anti-IFNy 10 μg/ml, FIG. 4B", "value": "reduced"}, {"measurement": "inflammatory Th17 cell formation", "setting": "naïve CD4+ T cells [2]; TGFβ, IL-6, anti-IFNy", "value": "suppressed"}]}
